These are literature values, as cited in patent US20190381034A1, “PHARMACEUTICAL COMPOSITION AND METHOD FOR ACUTE ON CHRONIC LIVER FAILURE AND RELATED LIVER DISEASES” (priority 2018, published 2019).

The conditions of series [1]: in vivo.
Setting [2] is: laboratory test indicators, liver failure patients, oral TMZ 20 mg three times a day.

Turning to `COc1ccc(CN2CCNCC2)c(OC)c1OC.Cl.Cl` [TMZ, 1-[2,3,4-trimethoxybenzyl] piperazine dihydrochloride], the “30-day immortality rate of liver failure patients” value in the series on liver failure patients (TMZ treatment group, 20 mg tablet orally three times a day, 4-week course, traditional therapeutic approach 44%) is recorded as “approximately 18%”. The “90-day immortality rate of liver failure patients” value in the series with liver failure patients (TMZ treatment group, 20 mg tablet orally three times a day, 4-week course, traditional therapeutic approach 68%) is recorded as 35%. Further, in the series with liver failure patients (setting [2]), the “decrease rate of alanine aminotransferase” value was “significantly raise the decrease rate” and the “decrease rate of aspartate transaminase” value is recorded as “significantly raise the decrease rate”. The “hepatic glucose metabolism (PET-CT imaging of liver)” value in the series with liver failure patients (one liver failure patient, after taking TMZ) is “remarkably improved”. In addition, the elimination half-life entry in series [1] is listed as “approximately 6 hours”. For the same compound, the liver toxicity result in the series on liver was “minimal liver toxicity”.
